# Test results: patent US12521419B2, “Use of anti-aging glycopeptides to enhance pancreatic cell health, survival and improve transplant outcome” (Protokinetix Inc., priority 2014, dated 2026)
# How the values were obtained:
# human islets = experiment: Extracellular ROS in culture media, Acridan Lumigen PS-3 assay; type: cell-based; conditions: media 24 hr after tacrolimus exposure, ± AAGP
# Protocol: Frozen samples from all groups are utilized to determine reactive oxygen species (ROS) in the culture media, using the Acridan Lumigen™ PS-3 assay (Amershan ECL Plus kit, Fisher Scientific Inc. Ottawa, ON, Canada) (18). In this assay Acridan Lumigen™ PS-3 is excited by reactive oxygen and nitrogen species (RNS) in the presence of hydrogen peroxide, producing chemiluminescense at 430 nm. Media samples are flash-frozen with liquid nitrogen and stored until the assay is performed. CMRL culture media alone is used as a control, and results are expressed as fold-change increase compared to the control media.
# [1] = test system: human islets transplanted under the kidney capsule; experiment: Long-term graft function of minimal mass human islet transplant (blood glucose, IPGTT, graft insulin content); type: in vivo, immunodeficient mice
# Source text: Eight to 12 week immunodeficient mice (B6.129S7-Rag1^tm1Mom) are obtained from the Jackson Laboratory (Bar Harbor, ME, USA) and housed under specific pathogen-free conditions with access to food and water ad libitum. Animals are cared for according to the guidelines of the Canadian Council on Animal Care, and ethical approval is obtained from the animal welfare committee at the University of Alberta.
# Animals are considered diabetic after two consecutive blood glucose measurements are documented≥18 mmol/L.
# Ten animals per group received approximately 1,000 IEQ human islets transplanted under the capsule of the left kidney as described previously (19).
# Non-fasting blood glucose is monitored in the remaining 7 mice per group three times a week using a portable glucometer (OneTouch Ultra 2, LifeScan, Canada) over 60 days. Normoglycemia is defined when two consecutive readings are below 11.3 mmol/L.
# Intraperitoneal Glucose-Tolerance Tests (IPGTT) are conducted 60 days post-transplant to evaluate the capacity of islets to respond to a glucose bolus (3 g/kg) after overnight fast. Blood glucose levels are monitored at baseline (Time 0, 15, 30, 60, 90 and 120 minutes post-injection). All results are compared to blood glucose profiles of naive control mice.
# Non-fasting blood glucose levels are recorded for 1 week following nephrectomy. Likewise, the native pancreas is excised at the terminal endpoint, fixed in 10% formalin and analyzed with immunohistochemistry to confirm absence of mouse insulin staining, thus, eliminating residual or regeneration of native pancreatic beta cell function.
# Preserved grafts are then processed as previously described and residual insulin content is determined using human insulin ELISA as a measure of surviving islets.
# [2] = test system: syngeneic islet transplant; experiment: Syngeneic full mass islet transplant with continuous tacrolimus treatment; type: in vivo, mouse
# Source text: FIG. 11 illustrates the post-transplant graft function in immunodefficient mice receiving minimal human islet mass (˜1000 IEQ). Islets were previously treated with AAGP™ and tracrolimus accordingly. […] The dotted line indicates graft recovery nephrectomy on day 60. B. Intraperitoneal glucose tolerance test (IPGTT) to evaluate metabolic response after receiving a glucose bolus. C. Insulin content of removed grafts after 60 days of transplant as an indication of residual islet mass. Data points represent mean±SEM adjusted per gram of tissue, (Tac− n=6, Tac+ n=3 and Tac+AAGP™ n=7), *p<0.05, **p<0.01 and ***p<0.001. D and E. Post-transplant graft function in mice receiving syngeneic full mass (˜500 IEQ) islet transplant. AAGP™ was added to the culture media 1 hour prior to transplant and tacrolimus was administered via a subcutaneous osmotic pump (implanted during the same procedure) at a continuous rate of 1 mg/kg/day. D. Pooled blood glucose profiles of animal over 40 days with clear dysfunction for Tac+ islets during the presence of Tac. Vertical dotted line indicates tacrolimus treatment cessation and marks a gradual recovery of Tac+ grafts. Horizontal continuous line at y=11 indicates the normoglycemia limit. Graft recovery nephrectomy was again performed on day 30. E. Mean time-to-euglycemia after transplant showing Tac+AAGP™ mice reversing diabetes earlier (p<0.001, log-rank, Mantel-cox test). […] These differences were not observed in the Tac+AAGP™ group.
# To further support these findings a transplant experiment was performed in a syngeneic diabetic mouse transplant model with continuous treatment with tacrolimus to resemble clinical practice.
# To make our experiments more clinically relevant, a new in vivo syngeneic mouse transplant model was performed, with tacrolimus as a continuous treatment by means of a subcutaneous osmotic pump. It was observed that the functional impairment of transplanted islets occurred immediately after starting administration of the CNI and lasted during the entire treatment period (7 days).
structure (smiles),measurement,setting,value
"C=CC[C@@H]1/C=C(\C)C[C@H](C)C[C@H](OC)[C@H]2O[C@@](O)(C(=O)C(=O)N3CCCC[C@H]3C(=O)O[C@H](/C(C)=C/[C@@H]3CC[C@@H](O)[C@H](OC)C3)[C@H](C)[C@@H](O)CC1=O)[C@H](C)C[C@@H]2OC.O [Tac+, tacrolimus]",extracellular ROS (fold-increase vs control media),human islets,substantial increase in ROS
same,IPGTT AUC,"[1]; 60 days post-transplant, glucose bolus 3 g/kg, Tac− 92.63, naïve 71.43",149.8
same,insulin content of recovered graft,[1]; after 60 days of transplant,30.86 ng/mL
same,blood glucose over 60 days post-transplant,"[1]; marginal islet mass model, n=7 per group",all mice remained hyperglycemic
same,graft function / period to achieve euglycemia,"[2]; AAGP in culture media 1 hour prior to transplant, tacrolimus 1 mg/kg/day by osmotic pump",unable to effectively secrete insulin and return animals to euglycemic state
same,IPGTT AUC under tacrolimus treatment,"[2]; initial IPGTT (7 days), tacrolimus 1 mg/kg/day",101
